Laboratory results reported in patent publication US20100240656A1, “COMPOUNDS AS HSP90 INHIBITORS” (ORYZON GENOMICS, S.A., priority 2007, published 2010).
“Also recorded” adds a separate entry of the source.

How the values were obtained:
WI-38 = assay: Cell proliferation by MTT method, WI-38; assay type: cell-based; settings: Homo sapiens
Procedure: (§1) The objective of this study was to determine the influence of the compounds on cell proliferation of K-562, A-549, MCF-7, HeLa, WI-38 by MTT method. The compounds were tested over a three-fold dilution series in triplicate for the determination of EC50 of their influence on cell proliferation.
(§2) The assay is based on the cleavage of the yellow tetrazolium salt MTT into purple formazan by metabolically active cells. The MTT formazan crystals are insoluble in aqueous solution, but may be solubilized by adding the 10% SDS, then incubating the plates overnight in a humidified atmosphere (e.g., 37° C., 5% CO2). The solubilized formazan product can be photometrically quantitated using Tecan reader. An increase in the number of living cells results in an increase of total metabolic activity, which leads to a stronger color formation.
(§3) EC50 values are defined as the compound concentration at which 50% of reaction product is formed.
(§4) Test compounds were dissolved to 10 mM in 100% DMSO.
(§5) In the day of the experiment cells were seeded into all wells of 96-well plates. Serial dilution of compounds was performed in a separate 96-well plate at 20 times final assay concentration in cell culture medium (DMEM with 10% Fetal Bovine Serum). 5 μl of compound was transferred to 96-well plate containing seeded cells in cell culture medium (final total volume=100 μl). Cells were cultured in the presence of the respective test substances in the 96-well plate at 37° C. in a humidified 5% CO2 incubator for a certain period of time (24, 72 or 120 hours). Then 5 μL of thiazolyl blue tetrazolium bromide (MTT) 5 mg/mL was added to the cells and the cells were reincubated 4 hours in a humidified 5% CO2 incubator. Then 10% SDS was added into the each well. The reaction product was quantified by measuring the absorbance at 568 nm using a scanning multiwell spectrophotometer Tecan. The developed color and thereby the absorbance values directly correlate to the number of the living cells.
The data were analyzed using Microsoft Excel 2000, GraphPad Prism 3.03. […]

[1] = system: Hsp90 client proteins (c-Raf-1, Cdk4, Her2) and co-chaperone Hsp70; assay: Determination of biomarkers in cell cultures (western blot, MCF7 cells); assay type: cell-based, human; settings: 33 and 100 μM, 72 hours
Text: FIG. 1 is a western blot analysis to determine the protein levels of Hsp90 client proteins (c-Raf-1, Cdk4, and Her2) and the co-chaperone Hsp70 upon treatment with increasing concentrations of example 6 (compound of the invention) and 17AAG (which is known in the state of the art as a degradation promoter).
The aim of this study was to determine the influence of example 6 on the levels of pharmacodynamic biomarkers such as c-Raf-1, Cdk4, Her2 and Hsp70, indicative that the effect observed in cell viability is mediated through inhibition of Hsp90. GADPH was used as a control of protein loading.
MCF7 cells (1×10^6) were seeded on tissue culture dishes and allowed to grow overnight at 37° C. with 5% CO2. Cells were treated with example 6 compound (at 33 and 100 μM) and the known Hsp90 inhibitor 17AAG (at […]). 0.5% DMSO was used as control. […] Protein concentration was measured by the Bradford method (Bio-Rad Protein Assay, Bio-Rad). […] Following appropriate secondary antibody incubation for 1 h at room temperature (anti-rabbit IgG-HRP, NA934V, Amersham Biosciences, diluted 1:8000; anti-mouse IgG-HRP, sc-2061, Santa Cruz Biotechnology, diluted 1:2500 and, anti-goat IgG-HRP, sc-31154, Santa Cruz Biotechnology, diluted 1:3500), the specific protein signals were detected using the ECL-Plus Western blotting detection system (GE Healthcare) according to the manufacturer's instructions. […]

A-549 = assay: Cell proliferation by MTT method, A-549; assay type: cell-based; settings: Homo sapiens
Procedure: as §1, §2, §3, §4, §5
(§6) The data were analyzed using Microsoft Excel 2000, GraphPad Prism 3.03.
(§7) K 562 (human, chronic myelongenous leukemia), A 549 (human, lung carcinoma), MCF-7 (human, breast adenocarcinoma), Hela (human, cervix, carcinoma, epitheloid), WI-38 (human, embryonic lung)

MCF-7 = assay: Cell proliferation by MTT method, MCF-7; assay type: cell-based; settings: Homo sapiens
Procedure: as §1, §2, §3, §4, §5, §6, §7

[2] = A549, 24 h, A 549, incubation 1 day
[3] = A549, 72 h, A 549, incubation 3 days
[4] = A549, 120 h, A 549, incubation 5 days
[5] = MCF7, 24 h, MCF-7, incubation 1 day
[6] = MCF7, 72 h, MCF-7, incubation 3 days
[7] = MCF7, 120 h, MCF-7, incubation 5 days

Row | EC50 (A-549; [2]) [µM] | EC50 (A-549; [3]) [µM] | EC50 (A-549; [4]) [µM] | EC50 (MCF-7; [5]) [µM] | EC50 (MCF-7; [6]) [µM] | EC50 (MCF-7; [7]) [µM] | SMILES | EC50 (WI-38; 24 h, WI-38, incubation 1 day) [µM] | EC50 (WI-38; 72 h, WI-38, incubation 3 days) [µM] | EC50 (WI-38; 120 h, WI-38, incubation 5 days) [µM] | protein levels of Hsp90 client proteins (c-Raf-1, Cdk4, Her2) and co-chaperone Hsp70 by western blot [1]
1 | > 100 | 24.1 | 14.9 | > 100 | 17.3 | 16.7 | NCCCCCn1c(Sc2cc3c(cc2I)OCO3)nc(C(N)=O)c1N [Example 6, 5-amino-1-(5-amino-pentyl)-2-(6-iodo-benzo[1,3]dioxol-5-ylsulfanyl)-1H-imidazole-4-carboxamide] | > 100 | 27.7 | 19.5 | acts in a similar way that 17AAG; also recorded: there is a specific interaction with hsp90 target in cells
2 | > 100 | 13.3 | 16.2 | > 100 | 10.1 | 11.7 | CCCCn1c(Sc2cc3c(cc2I)OCO3)nc(C(N)=O)c1N [Example 10, 5-amino-1-butyl-2-(6-iodo-benzo[1,3]dioxol-5-ylsulfanyl)-1H-imidazole-4-carboxamide] |  |  |  | 
